Data published in article PMC5735135, “Oxidative rearrangement of (+)-sesamin by CYP92B14 co-generates twin dietary lignans in sesame” (Nature Communications, 2017).

Assays:
CYP92B14 [1] = target: T1, CYP92B14 (Sesamum indicum, UniProt A0A2Z5U627); test: inhibition of (+)-sesamolin and (+)-sesaminol formation; format: cell-based; conditions: substrate (+)-sesamin; also a reaction by-product
T1 construct: full-length ORF expressed in yeast INVSc with sesame CPR1 (GenBank LC209223) as reductase; microsomes or whole yeast cells
T1 sequence (A0A2Z5U627 1-513): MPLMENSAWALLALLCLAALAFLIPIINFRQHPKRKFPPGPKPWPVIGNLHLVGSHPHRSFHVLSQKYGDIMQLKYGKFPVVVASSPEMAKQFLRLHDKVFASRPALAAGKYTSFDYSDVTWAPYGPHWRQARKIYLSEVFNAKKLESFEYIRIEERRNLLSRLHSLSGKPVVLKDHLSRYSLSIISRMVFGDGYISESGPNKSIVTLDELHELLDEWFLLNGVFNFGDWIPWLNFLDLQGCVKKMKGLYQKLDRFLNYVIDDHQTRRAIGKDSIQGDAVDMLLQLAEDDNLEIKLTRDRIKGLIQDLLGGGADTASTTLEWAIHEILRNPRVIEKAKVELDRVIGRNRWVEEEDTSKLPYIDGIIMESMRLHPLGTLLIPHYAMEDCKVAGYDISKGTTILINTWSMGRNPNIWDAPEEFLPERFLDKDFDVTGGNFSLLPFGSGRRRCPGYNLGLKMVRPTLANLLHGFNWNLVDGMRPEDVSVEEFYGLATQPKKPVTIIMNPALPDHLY

CYP81Q1 = target: T2, CYP81Q1 (Sesamum indicum, UniProt Q33DY0); test: HPLC of products formed by yeast cells ([…] nm); format: cell-based; conditions: CPR1 and CYP92B14 co-expressed, 48 h
T2 construct: full-length ORF expressed in yeast INVSc with sesame CPR1 (and CYP92B14); whole yeast cells
T2 sequence (Q33DY0 1-506): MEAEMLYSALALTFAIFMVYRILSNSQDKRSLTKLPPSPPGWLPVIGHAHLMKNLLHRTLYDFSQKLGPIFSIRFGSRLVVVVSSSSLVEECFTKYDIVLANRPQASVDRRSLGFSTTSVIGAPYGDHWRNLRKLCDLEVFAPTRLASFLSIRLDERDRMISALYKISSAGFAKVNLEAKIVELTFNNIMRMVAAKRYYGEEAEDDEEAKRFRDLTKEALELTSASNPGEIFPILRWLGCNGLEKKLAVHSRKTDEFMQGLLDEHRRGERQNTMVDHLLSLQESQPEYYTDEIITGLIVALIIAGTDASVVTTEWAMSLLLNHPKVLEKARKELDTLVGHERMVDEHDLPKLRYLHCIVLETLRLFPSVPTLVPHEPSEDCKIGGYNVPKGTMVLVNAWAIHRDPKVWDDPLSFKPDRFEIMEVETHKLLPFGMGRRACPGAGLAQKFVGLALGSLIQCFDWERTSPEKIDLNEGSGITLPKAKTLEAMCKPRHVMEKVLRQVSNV

CYP92B14 [2] = target: T1, CYP92B14; test: HPLC of products formed by yeast microsomes; format: biochemical; conditions: 100 uM (+)-sesamin, 1 mM NADPH, CPR1 co-expressed, 37 °C, 60 min

OC1OC[C@@H]2[C@@H](c3ccc4c(c3)OCO4)OC[C@H]12 (single isomer, unassigned; (+)) [(+)-samin]
inhibition of (+)-sesamolin and (+)-sesaminol formation (CYP92B14 [1]): the supplementation of these two compounds clearly inhibited the biosynthetic activity of CYP92B14

COc1cc([C@H]2OC[C@H]3[C@@H]2CO[C@@H]3c2ccc(O)c(OC)c2)ccc1O [(+)-pinoresinol]
HPLC of products formed by yeast cells (283 nm) (CYP81Q1): co-expressing CYP81Q1, CYP92B14, and CPR1 converted (+)-pinoresinol to (+)-sesaminol and (+)-sesamolin via (+)-sesamin

c1cc2c(cc1[C@H]1OC[C@H]3[C@@H]1CO[C@@H]3c1ccc3c(c1)OCO3)OCO2 [(+)-sesamin]
HPLC of products formed by yeast microsomes (CYP92B14 [2]): yeast cells expressing CYP92B14 and CPR1 converted (+)-sesamin to (+)-sesamolin

c1cc2c(cc1O[C@H]1OC[C@H]3[C@@H]1CO[C@@H]3c1ccc3c(c1)OCO3)OCO2 [(+)-sesamolin]
HPLC of products formed by yeast microsomes (CYP92B14 [2]): yeast cells expressing CYP92B14 and CPR1 converted (+)-sesamin to (+)-sesamolin

Oc1ccc2c(c1)OCO2 [sesamol]
inhibition of (+)-sesamolin and (+)-sesaminol formation (CYP92B14 [1]): the supplementation of these two compounds clearly inhibited the biosynthetic activity of CYP92B14
